The structures appear in SMILES notation.

What all share (type): cell-based, human
Assay [1] relates to mononuclear leukocytes (Two-way MLR). Briefly: Two-way mixed leukocyte reaction (MLR), 3H-thymidine incorporation. Particulars: for inhibition at 1 µM / inhibition at 10 µM / inhibition at 100 µM / inhibition at 0.01 µM / inhibition at 0.1 µM: Homo sapiens, Leukocyte.
The next assay deals with IL-10. Kind of assay: IL-10 production in PHA-stimulated PBMC cultures. On the set-up: % Inhibition of IL-10 production: concentration or dose not given beside the values. How it is done:
(§1) Production of autocrine growth factors (IL-2, IL-4, IL-10 and Interferon-gamma) in PHA-stimulated human PBMC cultures
(§2) Culture supernatants were collected at the times indicated and frozen at -20° C. At the end of 96 hr., all supernatants were assayed by enzyme immunoassay for the presence of the cytokines: interleukin-2, -4, -10 and interferon (IFN)-gamma. Results were expressed in pg/mL concentration of cytokine and % inhibition of cytokine production.

The subject of a further assay is IL-2. Kind of assay: IL-2 production in PHA-stimulated PBMC cultures. On the set-up: % Inhibition of IL-2 production: concentration or dose not given beside the values. How it is done:
as §1, §2

In the next assay the test system is Interferon-gamma. Kind of assay: Interferon-gamma production in PHA-stimulated PBMC cultures. On the set-up: % Inhibition of IFN-γ production: concentration or dose not given beside the values. The procedure: as §1, §2
The subject of a further assay is IL-4. Briefly: IL-4 production in PHA-stimulated PBMC cultures. On the set-up: % Inhibition of IL-4 production: concentration or dose not given beside the values. The procedure:
as §1, §2

Assay [2] deals with Protein Kinase-C-Mediated T-cell Proliferation (PBMC). Kind of assay: PK-C-mediated T-cell proliferation (PMA + A23187). Particulars: PMA 1.25 ng/mL + A23187 0.25 μM; for Proliferation: 100 μM; for inhibition at 100 µM: Homo sapiens, T-cell. The procedure: Determination of the effect of HE-33 on PK-C-mediated signaling pathway
PBMC of a healthy volunteer were cultured in 96-well microtiter plates at 2×10^5 cells/well. […] Forskolin is an agent well known to increase intacellular cAMP levels by activating adenylate cyclase. Cultures were incubated for 3 days at 37° C. in a 5% CO2 incubator. Proliferative response was determined by incorporation of ^3 H-thymidine.. The results were expressed in CPM and % inhibition of proliferation (Table 7).

In assay [1], `CCCN(CCC)c1ncnc2c1ncn2[C@@H]1O[C@H](CO)[C@@H](O)[C@H]1O` [Compound 1-46] had an inhibition at 1 µM of 12%, an inhibition at 10 µM of 83% and an inhibition at 100 µM of 98%.

In the case of `C=CC[C@@H]1/C=C(\C)C[C@H](C)C[C@H](OC)[C@H]2O[C@@](O)(C(=O)C(=O)N3CCCC[C@H]3C(=O)O[C@H](/C(C)=C/[C@@H]3CC[C@@H](O)[C@H](OC)C3)[C@H](C)[C@@H](O)CC1=O)[C@H](C)C[C@@H]2OC` [Fk506, reference compound], the “% Inhibition of IL-10 production” value in the assay on IL-10 (24 hours) turned out to be 69%; in the assay with IL-10 (48 hours), 77%; in the assay on IL-10 (72 hours) it was 61%; in the assay on IL-10 (96 hours), 76%. Besides, the IL-10 production in the assay on IL-10 (24 hours) was 173 pg/mL; in the assay on IL-10 (48 hours), 235 pg/mL; in the assay with IL-10 (72 hours) it was 228 pg/mL; with IL-10 (96 hours), 200 pg/mL. Moreover, the “% Inhibition of IL-2 production” value in the assay on IL-2 (24 hours) was determined as 100%; with IL-2 (48 hours), 97%; in the assay with IL-2 (72 hours) it was 91%; in the assay on IL-2 (96 hours), 0%. Besides, the IL-2 production with IL-2 (24 hours) is given as 0.7 pg/mL; in the assay with IL-2 (48 hours) it was 16 pg/mL; in the assay on IL-2 (72 hours), 16 pg/mL; with IL-2 (96 hours), 23 pg/mL. Moreover, the “% Inhibition of IFN-γ production” value in the assay on Interferon-gamma (24 hours) amounted to 100%; with Interferon-gamma (48 hours), 98%; in the assay with Interferon-gamma (72 hours), 92%; with Interferon-gamma (96 hours) it was 96%. In addition, the IFN-γ production in the assay on Interferon-gamma (24 hours) was 0 pg/mL; in the assay with Interferon-gamma (48 hours), 155 pg/mL; in the assay with Interferon-gamma (72 hours), 232 pg/mL; in the assay with Interferon-gamma (96 hours), 225 pg/mL. Also, the “% Inhibition of IL-4 production” value in the assay with IL-4 (24 hours) worked out at 98%; in the assay on IL-4 (48 hours), 99%; in the assay with IL-4 (72 hours), 99%; in the assay on IL-4 (96 hours), 93%. For the same compound, the IL-4 production is reported as 18 pg/mL in the assay with IL-4 (24 hours), 17 pg/mL with IL-4 (48 hours), 10 pg/mL in the assay on IL-4 (72 hours) and 10 pg/mL with IL-4 (96 hours).

In assay [1], `Cc1ccc(S(=O)(=O)O[C@@H]2[C@@H]3OP(=O)(O)OC[C@H]3O[C@H]2n2cnc3c(N)ncnc32)cc1` [Compound 1-5, 2'-O-Tosyl-c-AMP] came in with an inhibition at 0.01 µM of 0%, an inhibition at 0.1 µM of 16%, an inhibition at 1 µM of 25% and an inhibition at 10 µM of 24%. In assay [1], this compound yielded an inhibition at 100 µM of 58%.

In assay [1], `CCCCN(CCCC)c1ncnc2c1ncn2[C@@H]1O[C@@H]2COP(=O)(O)O[C@H]2[C@H]1OS(=O)(=O)c1ccc(C)cc1` [Compound 1-22] gave an inhibition at 0.01 µM of 0%, an inhibition at 0.1 µM of 7%, an inhibition at 1 µM of 4% and an inhibition at 10 µM of 0%. This compound also returned an inhibition at 100 µM in assay [1] of 99%.

In assay [1], `CCCCN(CCCC)c1ncnc2c1ncn2[C@@H]1O[C@@H]2COP(=O)(O)O[C@H]2[C@H]1O` [Compound 1-24] yielded an inhibition at 0.01 µM of 0%, an inhibition at 0.1 µM of 27%, an inhibition at 1 µM of 78% and an inhibition at 10 µM of 97%. In assay [1], the inhibition at 100 µM was 100%. Besides, in assay [1] (two-way MLR), the “Inhibitory capacity on two-way MLR, in words” value is “significant inhibitory capacity”. For the same compound, in assay [2], the Proliferation is given as 16 CPM and the inhibition at 100 µM was found to be 98%.

In assay [1], `CCCN(CCC)c1ncnc2c1nc(SCc1ccccc1)n2[C@@H]1O[C@@H]2COP(=O)(O)O[C@H]2[C@H]1O` [Compound 1-42] had an inhibition at 1 µM of 0%, an inhibition at 10 µM of 31% and an inhibition at 100 µM of 89%.

In assay [1], `CCN(CC)c1ncnc2c1ncn2[C@@H]1O[C@H](CO)[C@@H](O)[C@H]1O` [Compound 1-50] gave an inhibition at 1 µM of 13%, an inhibition at 10 µM of 45% and an inhibition at 100 µM of 88%.

As for `C=C[C@@]1(C)CC(=O)[C@]2(O)[C@@]3(C)[C@@H](O)CCC(C)(C)[C@@H]3[C@H](O)[C@H](OC(C)=O)[C@@]2(C)O1` [Forskolin, reference compound], in assay [1], testing at 0.01 µM gave an inhibition of 20%, at 0.1 µM the inhibition was 28%, 1 µM produced 31% inhibition and 10 µM produced 55% inhibition. For the same compound, 100 µM produced 60% inhibition in assay [1]. Further, in assay [2], the Proliferation is given as 476 CPM and the inhibition at 100 µM is 55%.

Regarding `CCCNc1ncnc2c1ncn2[C@@H]1O[C@@H]2COP(=O)(O)O[C@H]2[C@H]1O` [Compound 1-16], in assay [1], testing at 0.01 µM gave an inhibition of 0%, the inhibition at 0.1 µM was 2.2%, the inhibition at 1 µM was found to be 12.5% and 10 µM produced 90.7% inhibition. Also, the inhibition at 100 µM in assay [1] was 99.8%.

In assay [1], `CCCN(CCC)c1ncnc2c1ncn2[C@@H]1O[C@@H]2COP(=O)(O)O[C@H]2[C@H]1OS(=O)(=O)c1ccc(C)cc1` [Compound 1-15, N^6,N^6-di-n-Propyl-2'-O-tosyl-c-AMP] yielded an inhibition at 0.01 µM of 0%, an inhibition at 0.1 µM of 6%, an inhibition at 1 µM of 9% and an inhibition at 10 µM of 25%. The same compound displayed an inhibition at 100 µM in assay [1] of 99.4%.

For the compound `CCCC(=O)Nc1ncnc2c1ncn2[C@@H]1O[C@@H]2COP(=O)(O)O[C@H]2[C@H]1OC(=O)CCC` [dbcAMP, reference compound], in assay [2], the Proliferation was found to be 645 CPM and the inhibition at 100 µM worked out at 38%.

Values taken from patent publication US5968912A, “Methods for immunosuppressing” (Immune Modulation, Inc., priority 1997, dated 1999).
